Measurements as given in patent US10597388B2, “Pyridazinone herbicides” (FMC CORPORATION, priority 2014, dated 2020).

Legend:
Type in all cases: in vivo
[1] = system: barnyardgrass (Echinochloa crus-galli); test: Test A greenhouse herbicide test, pre- and postemergence
Procedure, shortened: (§1)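 Seeds in loam–sand blend received a preemergence directed soil spray; plants at 2–10 cm, one- to two-leaf stage, received postemergence sprays. Compounds in a non-phytotoxic solvent with surfactant. After about 10 d in a greenhouse, injury rated visually versus untreated controls on a 0–100 scale (100 = complete control).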

[2] = system: corn (Zea mays); test: as above; conditions: Postemergence
Procedure, shortened: as §1

[3] = system: foxtail, giant (giant foxtail, Setaria faberii); test: as above
Procedure, shortened: as §1

[4] = system: kochia (Kochia scoparia); test: as above
Procedure, shortened: as §1

[5] = system: pigweed (Amaranthus retroflexus); test: as above
Procedure, shortened: as §1

[6] = system: ragweed (common ragweed, Ambrosia elatior); test: as above
Procedure, shortened: as §1

[7] = system: ryegrass, Italian (Italian ryegrass, Lolium multiflorum); test: as above
Procedure, shortened: as §1

[8] = system: wheat (Triticum aestivum); test: as above; conditions: Postemergence
Procedure, shortened: as §1

[9] = system: blackgrass (Alopecurus myosuroides); test: Test A greenhouse herbicide test, postemergence
Procedure, shortened: (§2)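 Pot-grown plants (loam soil/sand blend), 2–10 cm tall at the one- to two-leaf stage, received postemergence sprays of formulated test chemical. After about 10 d in the greenhouse, injury was rated visually against untreated controls on a 0 (no effect) to 100 (complete control) scale.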

[10] = system: galium (catchweed bedstraw, Galium aparine); test: Test A greenhouse herbicide test, postemergence
Procedure, shortened: as §2

[11] = system: barnyardgrass (Echinochloa crus-galli); test: Test B flooded paddy test; conditions: 250 g ai/ha, Flood; visual rating on scale of 0 to 100 where 0 is no effect and 100 is complete control; 13 to 15 d after treatment
Procedure, shortened: (§3)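 Plants grown to the 2-leaf stage. At treatment, pots were flooded to 3 cm above the soil, compound was applied directly to the paddy water, and that depth was held throughout. After 13 to 15 d in the greenhouse, response was rated visually against controls on a 0 (no effect) to 100 (complete control) scale.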

[12] = system: ducksalad (Heteranthera limosa); test: Test B flooded paddy test; conditions: 250 g ai/ha, Flood; visual rating on scale of 0 to 100 where 0 is no effect and 100 is complete control; 13 to 15 d after treatment
Procedure, shortened: as §3

[13] = system: rice (Oryza sativa); test: Test B flooded paddy test; conditions: 250 g ai/ha, Flood; visual rating on scale of 0 to 100 where 0 is no effect and 100 is complete control; 13 to 15 d after treatment
Procedure, shortened: as §3

[14] = system: sedge, umbrella (small-flower umbrella sedge, Cyperus difformis); test: Test B flooded paddy test; conditions: 250 g ai/ha, Flood; visual rating on scale of 0 to 100 where 0 is no effect and 100 is complete control; 13 to 15 d after treatment
Procedure, shortened: as §3

[15] = Postemergence, 125 g ai/ha, 0 to 100 scale where 0 is no effect and 100 is complete control
[16] = Postemergence, 500 g ai/ha, visual rating after approx. 10 d, 0 to 100 scale (0 no effect, 100 complete control)
[17] = Preemergence, 125 g ai/ha, 0 to 100 scale where 0 is no effect and 100 is complete control
[18] = Preemergence, 500 g ai/ha, 0 to 100 scale where 0 is no effect and 100 is complete control
[19] = 125 g ai/ha, 0 to 100 scale where 0 is no effect and 100 is complete control
[20] = 500 g ai/ha, visual rating after approx. 10 d, 0 to 100 scale (0 no effect, 100 complete control)
[21] = Postemergence, 125 g ai/ha, 0 to 100 scale, 0 no effect, 100 complete control
[22] = Preemergence, 125 g ai/ha, visual injury rating, 0 to 100 scale (0 no effect, 100 complete control), approx. 10 d
[23] = 125 g ai/ha, 0 to 100 scale, 0 no effect, 100 complete control

SMILES	Plant response rating, Barnyardgrass [1, 16]	Plant response rating, Barnyardgrass [1, 18]	Plant response rating, Corn [2, 20]	Plant response rating, Foxtail, Giant [3, 16]	Plant response rating, Foxtail, Giant [3, 18]	Plant response rating, Kochia [4, 16]	Plant response rating, Kochia [4, 18]	Plant response rating, Pigweed [5, 16]	Plant response rating, Pigweed [5, 18]	Plant response rating, Ragweed [6, 16]	Plant response rating, Ragweed [6, 18]	Plant response rating, Ryegrass, Italian [7, 16]	Plant response rating, Ryegrass, Italian [7, 18]	Plant response rating, Wheat [8, 20]	Plant response rating, Blackgrass [9, 20]	Plant response rating, Galium [10, 20]	Plant response rating, Barnyardgrass [11]	Plant response rating, Ducksalad [12]	Plant response rating, Rice [13]	Plant response rating, Sedge, Umbrella [14]	further results
C#Cc1ccc2cccc(-c3c(O)c(C)nn(C)c3=O)c2c1 [Compound 150]	30	10	0	30	30	70	20	80	100	30	30	90	70	20	50	80	0	0	0	0	Plant response rating, Barnyardgrass [1, 15]: 0; Barnyardgrass plant response rating [1, 17]: 0; Plant response rating, Corn [2, 19]: 0; Plant response rating, Foxtail, Giant [3, 15]: 0; Foxtail, Giant plant response rating [3, 17]: 0; Plant response rating, Kochia [4, 15]: 40; Kochia plant response rating [4, 17]: 0; Plant response rating, Pigweed [5, 15]: 40; Pigweed plant response rating [5, 17]: 80; Plant response rating, Ragweed [6, 15]: 0; Plant response rating, Ryegrass, Italian [7, 15]: 40; Plant response rating, Wheat [8, 19]: 0; Plant response rating, Blackgrass [9, 19]: 0; Plant response rating, Galium [10, 19]: 30
Cc1ccc2ccccc2c1-c1c(OS(C)(=O)=O)c(Br)nn(C)c1=O [Compound 155]	80	80	20	90	90	80	90	100	100	100	90	90	90	50	70	90	0	50	20	65	Plant response rating, Barnyardgrass [1, 21]: 30; Plant response rating, Barnyardgrass [1, 22]: 50; Plant response rating, Corn [2, 23]: 0; Plant response rating, Foxtail, Giant [3, 21]: 80; Plant response rating, Foxtail, Giant [3, 22]: 60; Plant response rating, Kochia [4, 21]: 70; Plant response rating, Kochia [4, 22]: 20; Plant response rating, Pigweed [5, 21]: 90; Plant response rating, Pigweed [5, 22]: 100; Plant response rating, Ragweed [6, 21]: 100; Plant response rating, Ragweed [6, 22]: 90; Plant response rating, Ryegrass, Italian [7, 21]: 90; Plant response rating, Ryegrass, Italian [7, 22]: 70; Plant response rating, Wheat [8, 23]: 30; Plant response rating, Blackgrass [9, 23]: 60; Plant response rating, Galium [10, 23]: 90
CC(=O)Oc1c(C)nn(C)c(=O)c1-c1ccc(Cl)c2ccccc12 [Compound 157]	80	90	40	80	80	100	100	100	100	100	90	100	100	50	70	100	20	0	0	75	Plant response rating, Barnyardgrass [1, 21]: 50; Plant response rating, Barnyardgrass [1, 22]: 70; Plant response rating, Corn [2, 23]: 0; Plant response rating, Foxtail, Giant [3, 21]: 60; Plant response rating, Foxtail, Giant [3, 22]: 50; Plant response rating, Kochia [4, 21]: 100; Plant response rating, Kochia [4, 22]: 100; Plant response rating, Pigweed [5, 21]: 90; Plant response rating, Pigweed [5, 22]: 100; Plant response rating, Ragweed [6, 21]: 100; Plant response rating, Ragweed [6, 22]: 60; Plant response rating, Ryegrass, Italian [7, 21]: 100; Plant response rating, Ryegrass, Italian [7, 22]: 100; Plant response rating, Wheat [8, 23]: 0; Plant response rating, Blackgrass [9, 23]: 60; Plant response rating, Galium [10, 23]: 100
Cc1ccc2sc(C)c(-c3c(OCC#N)c(C)nn(C)c3=O)c2c1 [Compound 160]	20	10	0	20	30	60	20	90	100	80	80	90	80	0	20	90	0	0	0	0	Plant response rating, Barnyardgrass [1, 21]: 10; Plant response rating, Barnyardgrass [1, 22]: 10; Plant response rating, Corn [2, 23]: 0; Plant response rating, Foxtail, Giant [3, 21]: 10; Plant response rating, Foxtail, Giant [3, 22]: 10; Plant response rating, Kochia [4, 21]: 30; Plant response rating, Kochia [4, 22]: 20; Plant response rating, Pigweed [5, 21]: 80; Plant response rating, Pigweed [5, 22]: 50; Plant response rating, Ragweed [6, 21]: 70; Plant response rating, Ragweed [6, 22]: 30; Plant response rating, Ryegrass, Italian [7, 21]: 30; Plant response rating, Ryegrass, Italian [7, 22]: 20; Plant response rating, Wheat [8, 23]: 0; Plant response rating, Blackgrass [9, 23]: 10; Plant response rating, Galium [10, 23]: 70
